Experimental findings from ChEMBL document CHEMBL3817806, “Novel benzimidazol-2-ylidene carbene precursors and their silver(I) complexes: Potential antimicrobial agents” (2016) are described below.

Assay type in all cases: functional
The subject of one assay is Candida tropicalis. In words: Antifungal activity against Candida tropicalis ATCC 13803 after 48 hrs by agar dilution method. Conditions: ATCC 13803, 48 h.
A further assay concerns Enterococcus faecalis. Put plainly: Antibacterial activity against Enterococcus faecalis ATCC 29212 after 16 to 20 hrs by agar dilution method.
For the next assay, the system named is Candida albicans. In words: Antifungal activity against Candida albicans ATCC 10231 after 48 hrs by agar dilution method. To be noted: ATCC 10231, 48 h.
A further assay concerns Staphylococcus aureus. Put plainly: Antibacterial activity against Staphylococcus aureus ATCC 29213 after 16 to 20 hrs by agar dilution method.
The test system of the next assay is Pseudomonas aeruginosa. In words: Antibacterial activity against Pseudomonas aeruginosa ATCC 27853 after 16 to 20 hrs by agar dilution method.
The test system of another assay is Escherichia coli. In words: Antibacterial activity against Escherichia coli ATCC 25922 after 16 to 20 hrs by agar dilution method.

SMILES strings stand for the structures. In brackets after ≈: the same amount, converted by molar mass.

`CCOc1ccccc1OCCn1c[n+](Cc2ccc(C(C)C)cc2)c2ccccc21.[Br-]`: the MIC against Candida tropicalis was 400 µg/mL; in the assay with Enterococcus faecalis it was 800 µg/mL; against Candida albicans, 400 µg/mL; with Staphylococcus aureus it was 800 µg/mL; with Pseudomonas aeruginosa, 800 µg/mL; in the assay with Escherichia coli, 800 µg/mL.

Turning to `O=C(O)c1cn(C2CC2)c2cc(N3CCNCC3)c(F)cc2c1=O` [CIPROFLOXACIN], the MIC against Enterococcus faecalis was 0.78 µg/mL (≈ 2.35 µM); against Staphylococcus aureus it was 0.39 µg/mL (≈ 1.18 µM); against Pseudomonas aeruginosa, 3.12 µg/mL (≈ 9.42 µM).

Take `CCOc1ccccc1OCCn1c[n+](Cc2c(C)c(C)cc(C)c2C)c2ccccc21.[Br-]`: the MIC against Candida tropicalis was 400 µg/mL; against Enterococcus faecalis it was 800 µg/mL; against Candida albicans, 400 µg/mL; against Staphylococcus aureus, 400 µg/mL; in the assay with Pseudomonas aeruginosa, 800 µg/mL; in the assay with Escherichia coli it was 400 µg/mL.

In the case of `CCOc1ccccc1OCCn1c[n+](CCOC)c2ccccc21.[Br-]`, the MIC in the assay on Candida tropicalis, against Enterococcus faecalis, in the assay on Candida albicans, in the assay with Staphylococcus aureus, with Pseudomonas aeruginosa and against Escherichia coli was 800 µg/mL in each case.

For `CC1(C)S[C@@H]2[C@H](NC(=O)[C@H](N)c3ccccc3)C(=O)N2[C@H]1C(=O)O` [AMPICILLIN], the MIC against Enterococcus faecalis is 1.56 µg/mL (≈ 4.46 µM); against Staphylococcus aureus, 3.12 µg/mL (≈ 8.93 µM); against Escherichia coli, 3.12 µg/mL (≈ 8.93 µM).

Consider `CCCC[n+]1cn(CCOc2ccccc2OCC)c2ccccc21.[Br-]`, for which the MIC against Candida tropicalis amounted to 25 µg/mL; in the assay with Enterococcus faecalis, 50 µg/mL; against Candida albicans, 25 µg/mL; with Staphylococcus aureus it was 50 µg/mL; against Pseudomonas aeruginosa it was 50 µg/mL; with Escherichia coli, 50 µg/mL.

As for `CCOc1ccccc1OCCn1c[n+](Cc2c(C)cc(C)cc2C)c2ccccc21.[Br-]`, the MIC against Candida tropicalis came to 50 µg/mL; in the assay with Enterococcus faecalis, 800 µg/mL; with Candida albicans it was 50 µg/mL; against Staphylococcus aureus, 50 µg/mL; against Pseudomonas aeruginosa, 800 µg/mL; against Escherichia coli, 50 µg/mL.

Consider `CCOc1ccccc1OCCn1c[n+](Cc2cccc(OC)c2)c2ccccc21.[Cl-]`, for which the MIC against Candida tropicalis, against Enterococcus faecalis, in the assay on Candida albicans, in the assay on Staphylococcus aureus, against Pseudomonas aeruginosa and against Escherichia coli was 800 µg/mL throughout.

Take `CCOc1ccccc1OCCn1c[n+](Cc2ccc(C(C)(C)C)cc2)c2ccccc21.[Br-]`: the MIC with Candida tropicalis came out at 50 µg/mL; in the assay on Enterococcus faecalis it was 200 µg/mL; in the assay with Candida albicans, 50 µg/mL; in the assay on Staphylococcus aureus, 50 µg/mL; against Pseudomonas aeruginosa, 400 µg/mL; with Escherichia coli, 50 µg/mL.

On to `OC(Cn1cncn1)(Cn1cncn1)c1ccc(F)cc1F` [FLUCONAZOLE], for which the MIC against Candida tropicalis and against Candida albicans was 3.12 µg/mL (≈ 10.2 µM) throughout.

Take `CCOc1ccccc1OCCn1c[n+](CCOc2ccccc2OCC)c2ccccc21.[Br-]`: the MIC with Candida tropicalis stood at 200 µg/mL; against Enterococcus faecalis, 400 µg/mL; against Candida albicans it was 200 µg/mL; in the assay with Staphylococcus aureus it was 200 µg/mL; in the assay with Pseudomonas aeruginosa it was 400 µg/mL; against Escherichia coli, 200 µg/mL.
